In patent US8008306B2, “Quinoline compounds” (Kowa Company, Ltd., priority 2008, dated 2011):

What was measured:
[1] = target: T1, LXRβ/GAL4 hybrid (LBD of human LXRβ), compared with LXRα/GAL4 (Homo sapiens, UniProt P55055); test: Transactivation assay (GAL4-responsive luciferase reporter); assay type: cell-based; conditions: CHOK-1 cells stably expressing LXRα/GAL4 or LXRβ/GAL4 and pG5luc; 0.01-10 μM, 24 hours; % eff relative to T0901317 at 10 μM = 100; data in FIGS. only
T1 construct: expressed in transfected cells; host or cells: CHOK-1 cells stably expressing the hybrid and pG5luc
T1 sequence (P55055 222-460 limits assumed): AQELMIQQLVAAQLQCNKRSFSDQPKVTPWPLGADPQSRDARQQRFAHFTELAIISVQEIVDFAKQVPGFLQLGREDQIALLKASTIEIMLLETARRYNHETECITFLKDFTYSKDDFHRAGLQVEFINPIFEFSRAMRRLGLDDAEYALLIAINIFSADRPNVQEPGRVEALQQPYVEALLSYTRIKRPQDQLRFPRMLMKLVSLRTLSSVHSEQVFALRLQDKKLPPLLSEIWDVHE
Source text: The ligand-binding domain (LBD) of a human LXRα and LXRβ cDNA was inserted adjacent to an yeast GAL4-transcription factor DNA-binding domain (DBD) of a mammal expression vector pBIND (Promega) to prepare an expression construct, thereby to produce pBIND-LXRα/GAL4 and pBIND-LXRβ/GAL4, respectively. PG5luc, a GAL4-responsive reporter construct, is a known vector that is available from Promega, and contains 5 copies of GAL4-response element located adjacent to the promoter as well as a luciferase reporter gene.
An LXRα/GAL4 or LXRβ/GAL4 hybrid and GAL4-responsive reporter vector pG5luc-stable-expression CHOK-1 cells were seeded under 5% CO2 wet atmosphere at 37° C., at 20,000 cells/well on a 96-well plate containing HAM-F12 medium containing 10% […] bovine fetal serum, 100 units/ml of penicillin G, and 100 μg/ml of streptomycin sulfate. […] By using Bright-Glo (Promega) as a luciferase assay substrate, and measuring the luminescence intensity with luminometer LB960 (Berthold Technologies), the effect of the test compound on the activation of luciferase transcription via the LXRα- or LXRβ-LBD was measured. At the same time, T0901317 (the compound of Example 12 of WO2000/54759) and WAY-254011 (compound 4 of Hu et al., Bioorg. Med. Chem. Lett., 18, pp. 54-59, 2008) were assessed as comparative compounds. […]

[2] = target: T2, LXRβ (versus LXRα) (Homo sapiens, UniProt P55055); conditions: from Hu et al., Bioorg. Med. Chem. Lett., 18, pp. 54-59, 2008; cited from earlier work
T2 sequence (P55055 1-460): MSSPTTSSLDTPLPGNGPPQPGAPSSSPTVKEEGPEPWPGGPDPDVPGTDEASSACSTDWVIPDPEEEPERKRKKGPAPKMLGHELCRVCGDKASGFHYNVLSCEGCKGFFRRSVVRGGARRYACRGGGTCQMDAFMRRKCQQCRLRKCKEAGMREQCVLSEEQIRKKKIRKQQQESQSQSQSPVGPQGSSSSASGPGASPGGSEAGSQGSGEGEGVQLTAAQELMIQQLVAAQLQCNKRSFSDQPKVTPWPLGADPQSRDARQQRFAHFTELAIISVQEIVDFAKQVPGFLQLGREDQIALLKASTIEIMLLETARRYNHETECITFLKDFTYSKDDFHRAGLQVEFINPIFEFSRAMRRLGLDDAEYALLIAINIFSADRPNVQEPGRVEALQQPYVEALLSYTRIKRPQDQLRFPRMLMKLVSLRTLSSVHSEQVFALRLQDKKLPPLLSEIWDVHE

## O=C(O)Cc1ccc(COc2cccc(-c3c(Cc4ccccc4)cnc4c(C(F)(F)F)cccc34)c2)cc1 [WAY-254011]
[1]
  LXRβ-selective agonist effect (luciferase activity via LXRα- or LXRβ-LBD): not found to have an LXRβ-selective agonist effect
[2]
  LXRβ-selective binding affinity (α/β ratio): 1 to 5
